Measured values as given in PubChem BioAssay (NCI).
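Method: 48-hour compound exposure of cells in 96-well plates, five concentrations, linear interpolation of endpoints. TGI is the concentration that stops growth completely.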

Columns and labels:
Experiment in all cases: NCI tumour cell line growth inhibition, 48 h
[1] = tested on: NCI-H522 lung
[2] = tested on: SK-OV-3 ovarian
[3] = tested on: UACC-257 melanoma
[4] = tested on: RPMI-8226 leukemia
[5] = tested on: OVCAR-8 ovarian
[6] = tested on: HT29 colon
[7] = tested on: MCF7 breast
[8] = tested on: SK-MEL-2 melanoma
[9] = tested on: NCI-H23 lung
[10] = tested on: IGROV1 ovarian
[11] = tested on: LOX IMVI melanoma
[12] = tested on: U251 CNS
[13] = tested on: HOP-62 NSCLC
[14] = tested on: ACHN renal
[15] = tested on: T-47D breast
[16] = tested on: MALME-3M melanoma
[17] = tested on: KM12 colon
[18] = tested on: HS 578T breast
[19] = tested on: M14 melanoma
[20] = tested on: MDA-MB-435
[21] = tested on: HCC-2998 colon
[22] = tested on: OVCAR-4 ovarian
[23] = tested on: MDA-MB-231 breast
[24] = tested on: NCI-H226 lung
[25] = tested on: SR leukemia
[26] = tested on: RXF 393 renal
[27] = tested on: UACC-62 melanoma
[28] = tested on: CCRF-CEM leukemia
[29] = tested on: MDA-N
[30] = tested on: HCT-116 colon
[31] = tested on: A549 NSCLC
[32] = tested on: SN12C renal
[33] = tested on: SF-539 CNS
[34] = tested on: SNB-75 CNS
[35] = tested on: HOP-92 NSCLC
[36] = tested on: OVCAR-3 ovarian
[37] = tested on: NCI/ADR-RES ovarian
[38] = tested on: SF-295 CNS
[39] = tested on: TK-10 renal
[40] = tested on: OVCAR-5 ovarian
[41] = tested on: UO-31 renal
[42] = tested on: PC-3 prostate
[43] = tested on: HCT-15 colon
[44] = tested on: MOLT-4 leukemia
[45] = tested on: 786-0 renal
[46] = tested on: COLO 205 colon
[47] = tested on: EKVX NSCLC
[48] = tested on: SK-MEL-5 melanoma
[49] = tested on: A498 renal
[50] = tested on: K-562 leukemia
[51] = tested on: SK-MEL-28 melanoma
[52] = tested on: HL-60(TB) leukemia
[53] = tested on: SNB-19 CNS
[54] = tested on: CAKI-1 renal
[55] = tested on: SF-268 CNS
[56] = tested on: NCI-H460 lung
[57] = tested on: DU-145 prostate
[58] = tested on: SW-620 colon

O=C(O)CCc1ccc2c(c1)CC1(Cc3ccccc3C1)C2
TGI [1]: > 100 µM
TGI [2]: > 100 µM
TGI [3]: > 100 µM
TGI [4]: > 100 µM
TGI [5]: > 100 µM
TGI [6]: > 100 µM
TGI [7]: > 100 µM
TGI [8]: > 100 µM
TGI [9]: > 100 µM
TGI [10]: > 100 µM
TGI [11]: > 100 µM
TGI [12]: > 100 µM
TGI [13]: > 100 µM
TGI [14]: > 100 µM
TGI [15]: > 100 µM
TGI [16]: > 100 µM
TGI [17]: > 100 µM
TGI [18]: > 100 µM
TGI [19]: > 100 µM
TGI [20]: > 100 µM
TGI [21]: > 100 µM
TGI [22]: > 100 µM
TGI [23]: > 100 µM
TGI [24]: > 100 µM
TGI [25]: > 100 µM
TGI [26]: > 100 µM
TGI [27]: > 100 µM
TGI [28]: > 100 µM
TGI [29]: > 100 µM
TGI [30]: > 100 µM
TGI [31]: > 100 µM
TGI [32]: > 100 µM
TGI [33]: > 100 µM
TGI [34]: 96.4 µM
TGI [35]: > 100 µM
TGI [36]: > 100 µM
TGI [37]: > 100 µM
TGI [38]: > 100 µM
TGI [39]: > 100 µM
TGI [40]: > 100 µM
TGI [41]: > 100 µM
TGI [42]: > 100 µM
TGI [43]: > 100 µM
TGI [44]: > 100 µM
TGI [45]: > 100 µM
TGI [46]: > 100 µM
TGI [47]: > 100 µM
TGI [48]: > 100 µM
TGI [49]: > 100 µM

Cc1cc(O)cc(O)c1C(=O)O[C@]1(C)C(=O)C=C2C=C(/C=C/C(=O)O)OC=C2C1=O
TGI [2]: > 100 µM
TGI [3]: > 100 µM
TGI [4]: > 100 µM
TGI [5]: > 100 µM
TGI [50]: > 100 µM
TGI [6]: > 100 µM
TGI [7]: > 100 µM
TGI [8]: > 100 µM
TGI [9]: > 100 µM
TGI [51]: > 100 µM
TGI [10]: > 100 µM
TGI [52]: 75.1 µM
TGI [11]: > 100 µM
TGI [53]: > 100 µM
TGI [13]: > 100 µM
TGI [14]: > 100 µM
TGI [54]: > 100 µM
TGI [15]: > 100 µM
TGI [16]: > 100 µM
TGI [17]: > 100 µM
TGI [18]: > 100 µM
TGI [19]: > 100 µM
TGI [20]: > 100 µM
TGI [21]: > 100 µM
TGI [55]: > 100 µM
TGI [22]: > 100 µM
TGI [23]: > 100 µM
TGI [24]: > 100 µM
TGI [25]: 99 µM
TGI [56]: > 100 µM
TGI [26]: > 100 µM
TGI [27]: > 100 µM
TGI [28]: 88.3 µM
TGI [29]: > 100 µM
TGI [57]: > 100 µM
TGI [30]: > 100 µM
TGI [31]: > 100 µM
TGI [32]: > 100 µM
TGI [33]: > 100 µM
TGI [34]: > 100 µM
TGI [35]: > 100 µM
TGI [36]: > 100 µM
TGI [58]: > 100 µM
TGI [37]: > 100 µM
TGI [38]: > 100 µM
TGI [39]: > 100 µM
TGI [40]: > 100 µM
TGI [41]: > 100 µM
TGI [42]: > 100 µM
TGI [43]: > 100 µM
TGI [44]: > 100 µM
TGI [45]: > 100 µM
TGI [46]: > 100 µM
TGI [47]: > 100 µM
TGI [48]: > 100 µM
TGI [49]: > 100 µM
